In one assay the test system is WT and ATG4B KO HCT116. Put plainly: Apoptosis detection by cleaved PARP western blot. Conditions: low or high concentrations of Ebselen; STS 2 μM; 6 h. Type of assay: cell-based. A general note: A western blot detects proteins with antibodies after separation by electrophoresis.
Another assay has as its system CASP3. More on the design: method as in PMID 23632366, PMID 25468037. Conditions: cited from earlier work.
The next assay has as its system HeLa cell line. Put plainly: Autophagy flux by LC3B-II western blot in HeLa. Format: cell-based. The note with it: Torin 1 2 μM, CQ 40 μM. As for the experimental part:
Since ATG4B is a key protein in autophagy, the experiment on the effect of Ebselen on autophagy flux was worth proposing. First of all, we determined the most classic index LC3B for autophagy flux detection in HeLa cell line. […] A, B HeLa cells were treated with Torin 1 (2 μM) or CQ (40 μM) and detected by western blot. C, D SW620 cells were transduced with sgCon and sgATG4B lentiviruses, respectively. Then cells were treated with CQ (40 μM) and detected by western blot. E, F HCT116 were treated with Ebselen (5 and 10 μM) or CQ (40 μM) and subjected to western blot. G, H SW620 were treated with Ebselen (10 μM) or CQ (40 μM) and western blotting was carried out to detect the protein levels. I, J Immunofluorescence analysis of endogenous LC3B in HCT116 treated with Ebselen (10 μM) or CQ (40 μM). Dots numbers for LC3B were derived from counting at least 20 cells and 5 fields from three independent replicated experiments. Bar = 10 μm. K HCT116 cells were treated with 2 μM Torin 1 in the presence or absence of 10 μM Ebselen for 12 h, then the level ratio of long-lived proteins was measured by flow cytometry

Turning to `CN[C@@H]1C[C@H]2O[C@@](C)([C@@H]1OC)n1c3ccccc3c3c4c(c5c6ccccc6n2c5c31)C(=O)NC4` [Staurosporine (STS), Staurosporine], the “apoptosis (cleaved PARP)” value in the assay on WT and ATG4B KO HCT116 is “generation of apoptosis”.
On to `O=c1c2ccccc2sn1-c1ccccc1` [Ebsulfur], for which, in the assay with CASP3, the “inhibition on CASP3” value is on record as “clear inhibition”.
Regarding `CCC(=O)N1CCN(c2ccc(-n3c(=O)ccc4cnc5ccc(-c6cnc7ccccc7c6)cc5c43)cc2C(F)(F)F)CC1` [Torin 1], the “effect on autophagy (LC3B-II accumulation with CQ)” value with HeLa cell line is on record as “autophagy inducer”.

Values taken from PMC9767854, “Discovery and mechanism studies of a novel ATG4B inhibitor Ebselen by drug repurposing and its anti-colorectal cancer effects in mice” (Cell & Bioscience, 2022).
